Experimental data taken from article PMC6270666, “Flavonoids with M1 Muscarinic Acetylcholine Receptor Binding Activity” (Molecules, 2014).
Where two headings read alike, the source gives them in different places.

Experiments:
cloned human M1 mAChRs = biological target: T1, cloned human M1 mAChRs (Homo sapiens, UniProt P11229); test: M1 mAChR radioligand binding assay ([3H]N-methylscopolamine displacement)
T1 construct: purchased Perkin Elmer; host or cells: stably transfected CHO-K1 cell lines (membrane preparation)
T1 sequence (P11229 1-460): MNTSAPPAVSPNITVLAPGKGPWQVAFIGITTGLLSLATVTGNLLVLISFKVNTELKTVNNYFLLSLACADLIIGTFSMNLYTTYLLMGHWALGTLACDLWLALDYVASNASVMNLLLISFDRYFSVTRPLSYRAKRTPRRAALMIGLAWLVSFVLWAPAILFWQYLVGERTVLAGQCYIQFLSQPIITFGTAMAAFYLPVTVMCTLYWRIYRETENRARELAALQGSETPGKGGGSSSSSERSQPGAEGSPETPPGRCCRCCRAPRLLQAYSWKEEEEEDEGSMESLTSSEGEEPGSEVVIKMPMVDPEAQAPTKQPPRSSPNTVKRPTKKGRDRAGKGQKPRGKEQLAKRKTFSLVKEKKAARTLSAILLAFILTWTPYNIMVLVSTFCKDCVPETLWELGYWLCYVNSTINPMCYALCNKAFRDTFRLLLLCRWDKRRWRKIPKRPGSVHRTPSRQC

cholinesterase = test system: cholinesterase; design: method as in PMID 20030514; conditions: cited from earlier work
[1] = test system: SH-SY5Y neuroblastoma cells; conditions: cited from earlier work
[2] = test system: streptozotocin-induced diabetic rats; design: method as in PMID 23415807; conditions: cited from earlier work
[3] = test system: amyloid β25-35 peptide-induced toxicity in mice; conditions: cited from earlier work
CLK1 = test system: CLK1; design: method as in PMID 22673832; conditions: cited from earlier work
DYRK1A = test system: DYRK1A; design: method as in PMID 22673832; conditions: cited from earlier work
[4] = displacement of [3H]N-methylscopolamine 0.2 nM, M1 mAChR membranes from CHO-K1 cells, 27 °C, 120 min, mean ± SEM (n = 2), read-out: IC50
[5] = Cheng-Prusoff from IC50, [3H]N-methylscopolamine 0.2 nM, M1 mAChR membranes from CHO-K1 cells, mean ± SEM (n = 2), read-out: Ki

SMILES	IC50 (cloned human M1 mAChRs) [µM]	IC50 (cloned human M1 mAChRs; [4]) [µM]	other results
COc1cc(OC)c2c(=O)cc(-c3ccc(OC)c(OC)c3)oc2c1 [Compound 1, 3',4',5,7-Tetramethoxyflavone]	> 10000	–	–
COc1cc(OC)c2c(=O)cc(-c3cc(OC)c(OC)c(OC)c3)oc2c1 [Compound 2, 3',4',5',5,7-Pentamethoxyflavone]	–	> 10000	melting point: 195 °C
COc1ccc(-c2cc(=O)c3c(OC)c(OC)c(OC)cc3o2)cc1OC [Compound 3, 3',4',5,6,7-Pentamethoxyflavone]	–	> 10000	–
COc1cc(-c2cc(=O)c3c(OC)c(OC)c(OC)cc3o2)cc(OC)c1OC [Compound 4, 3',4',5',5,6,7-Hexamethoxyflavone]	–	257 ± 27	Ki (cloned human M1 mAChRs; [5]): 107 ± 11 µM
O=c1cc(-c2ccc(O)cc2)oc2cc(O)cc(O)c12 [Compound 5, Apigenin]	> 10000	–	–
O=c1cc(-c2ccc(O)c(O)c2)oc2cc(O)cc(O)c12 [Compound 6, Luteolin]	226 ± 14	–	cholinesterase inhibitory activity (cholinesterase): cholinesterase inhibitory activity; effect on hydrogen peroxide-induced apoptosis [1]: protective effects; effect on cognitive decline [2]: attenuation of cognitive decline; effect against amyloid β25-35 peptide-induced toxicity [3]: anti-amnesic effects; Ki (cloned human M1 mAChRs): 94 ± 6 µM
O=c1c(O)c(-c2ccc(O)c(O)c2)oc2cc(O)ccc12 [Compound 8, Fisetin]	–	> 10000	–
COc1cc(O)c2c(=O)c(O)c(-c3ccc(OC)c(O)c3)oc2c1 [Compound 9, 3ʹ,3,5-Trihydroxy-4ʹ,7-dimethoxyflavone]	–	101 ± 6	inhibition of CLK1 kinase (CLK1): potent inhibitor; inhibition of DYRK1A kinase (DYRK1A): potent inhibitor; Ki (cloned human M1 mAChRs; [5]): 42 ± 3 µM
COc1ccc(-c2oc3cc(OC)c(OC)cc3c(=O)c2O)cc1OC [Compound 10, 3-Hydroxy-3ʹ,4ʹ,6,7-tetramethoxyflavone]	–	> 10000	melting point: 225 to 226 °C
O=c1c(O)c(-c2ccc(O)cc2)oc2cc(O)cc(O)c12 [Compound 11, Kaempferol]	–	> 10000	–
O=c1c(O)c(-c2ccc(O)c(O)c2)oc2cc(O)cc(O)c12 [Compound 12, Quercetin]	–	> 10000	–
O=c1c(O)c(-c2cc(O)c(O)c(O)c2)oc2cc(O)cc(O)c12 [Compound 13, Myricetin]	> 10000	–	–
